Reference: the NIST ThermoML archive (doi:10.1016/j.jct.2015.08.040)
Numbers after ± are expanded uncertainties.

Experiment: xn = mol fraction of the nth substance listed
Conditions: 100 kPa, Liquid; for speed of sound: Frequency=2 MHz, Linear variable-path acoustic interferometer; for mass density: Vibrating tube method

OCc1ccccc1 [benzenemethanol] + COCCO
Conditions	mass density, 298.15 K [kg/m3]	mass density, 303.15 K [kg/m3]	mass density, 308.15 K [kg/m3]	mass density, 313.15 K [kg/m3]	mass density, 318.15 K [kg/m3]	speed of sound, 298.15 K [m/s]	speed of sound, 308.15 K [m/s]
x1 = 0.0979	974.27 ± 4	969.06 ± 4	963.98 ± 4	958.77 ± 4	953.4 ± 4	1359 ± 8	1319 ± 8
x1 = 0.1928	985.51 ± 4	980.26 ± 4	975.04 ± 4	969.7 ± 4	964.14 ± 4	1377 ± 8	1337 ± 8
x1 = 0.2847	995 ± 4	989.74 ± 4	984.55 ± 4	979.32 ± 4	973.82 ± 4	1395 ± 9	1354 ± 8
x1 = 0.3739	1003.23 ± 4	998.13 ± 4	992.96 ± 4	987.81 ± 4	982.44 ± 4	1413 ± 9	1371 ± 8
x1 = 0.4604	1010.46 ± 4	1005.46 ± 4	1000.42 ± 4	995.25 ± 4	990.02 ± 4	1430 ± 9	1388 ± 8
x1 = 0.5443	1016.87 ± 4	1011.91 ± 4	1006.93 ± 4	1001.91 ± 4	996.67 ± 4	1447 ± 9	1405 ± 9
x1 = 0.6258	1022.61 ± 4	1017.7 ± 4	1012.79 ± 4	1007.81 ± 4	1002.65 ± 4	1463 ± 9	1421 ± 9
x1 = 0.7049	1027.69 ± 4	1022.84 ± 4	1018.04 ± 4	1013.09 ± 4	1007.91 ± 4	1478 ± 9	1437 ± 9
x1 = 0.7818	1032.17 ± 4	1027.39 ± 4	1022.66 ± 4	1017.74 ± 4	1012.63 ± 4	1493 ± 9	1452 ± 9
x1 = 0.8565	1035.9 ± 4	1031.28 ± 4	1026.79 ± 4	1022.07 ± 4	1017.05 ± 4	1507 ± 9	1467 ± 9
x1 = 0.9292	1038.94 ± 4	1034.49 ± 4	1030.32 ± 4	1025.92 ± 4	1021.35 ± 4	1521 ± 9	1482 ± 9
x1 = 1	1041.05 ± 4	1037.15 ± 4	1033.32 ± 4	1029.46 ± 4	1025.59 ± 4	1534.5 ± 9.3	1496 ± 9.1

CCCCOCCO [2-butoxyethan-1-ol] + OCc1ccccc1
Conditions	mass density, 298.15 K [kg/m3]	mass density, 303.15 K [kg/m3]	mass density, 308.15 K [kg/m3]	mass density, 313.15 K [kg/m3]	mass density, 318.15 K [kg/m3]	speed of sound, 298.15 K [m/s]	speed of sound, 308.15 K [m/s]
x2 = 0	896.46 ± 4	892.22 ± 4	887.97 ± 4	883.7 ± 4	879.42 ± 4	1305 ± 8	1275 ± 7.8
x2 = 0.1042	909.14 ± 4	904.89 ± 4	900.6 ± 4	896.2 ± 4	891.93 ± 4	1329 ± 8	1296 ± 8
x2 = 0.2038	921.94 ± 4	917.61 ± 4	913.28 ± 4	908.82 ± 4	904.49 ± 4	1352 ± 8	1317 ± 8
x2 = 0.299	934.77 ± 4	930.34 ± 4	925.95 ± 4	921.47 ± 4	917.11 ± 4	1373 ± 8	1337 ± 8
x2 = 0.3902	947.51 ± 4	942.98 ± 4	938.56 ± 4	934.1 ± 4	929.63 ± 4	1394 ± 9	1356 ± 8
x2 = 0.4776	960.11 ± 4	955.52 ± 4	951.03 ± 4	946.55 ± 4	942.13 ± 4	1413 ± 9	1375 ± 8
x2 = 0.5614	972.47 ± 4	967.75 ± 4	963.31 ± 4	958.86 ± 4	954.41 ± 4	1433 ± 9	1394 ± 9
x2 = 0.6418	984.52 ± 4	979.84 ± 4	975.34 ± 4	970.91 ± 4	966.56 ± 4	1452 ± 9	1412 ± 9
x2 = 0.7191	996.35 ± 4	991.7 ± 4	987.22 ± 4	982.84 ± 4	978.55 ± 4	1470 ± 9	1430 ± 9
x2 = 0.7933	1007.85 ± 4	1003.3 ± 4	998.89 ± 4	994.59 ± 4	990.4 ± 4	1486 ± 9	1446 ± 9
x2 = 0.8648	1019.13 ± 4	1014.73 ± 4	1010.48 ± 4	1006.26 ± 4	1002.24 ± 4	1503 ± 9	1463 ± 9
x2 = 0.9336	1030.15 ± 4	1025.98 ± 4	1021.88 ± 4	1017.81 ± 4	1013.89 ± 4	1519 ± 9	1479 ± 9

CCOCCO [2-ethoxyethan-1-ol] + OCc1ccccc1
Conditions	mass density, 298.15 K [kg/m3]	mass density, 303.15 K [kg/m3]	mass density, 308.15 K [kg/m3]	mass density, 313.15 K [kg/m3]	mass density, 318.15 K [kg/m3]	speed of sound, 298.15 K [m/s]	speed of sound, 308.15 K [m/s]
x2 = 0	925.36 ± 4	920.72 ± 4	916.11 ± 4	911.47 ± 4	906.9 ± 4	1301.4 ± 8	1274.8 ± 7.9
x2 = 0.0793	936.7 ± 4	931.63 ± 4	926.88 ± 4	922.19 ± 4	917.52 ± 4	1320 ± 8	1291 ± 8
x2 = 0.1593	947.73 ± 4	942.59 ± 4	937.61 ± 4	932.97 ± 4	928.22 ± 4	1339 ± 8	1308 ± 8
x2 = 0.2401	958.4 ± 4	953.27 ± 4	948.33 ± 4	943.6 ± 4	938.75 ± 4	1358 ± 8	1325 ± 8
x2 = 0.3215	968.73 ± 4	963.72 ± 4	958.87 ± 4	954.15 ± 4	949.14 ± 4	1378 ± 8	1342 ± 8
x2 = 0.4037	978.84 ± 4	973.92 ± 4	969.17 ± 4	964.42 ± 4	959.34 ± 4	1399 ± 9	1360 ± 8
x2 = 0.4866	988.63 ± 4	983.76 ± 4	979.06 ± 4	974.35 ± 4	969.28 ± 4	1419 ± 9	1379 ± 8
x2 = 0.5703	998.17 ± 4	993.33 ± 4	988.65 ± 4	984.06 ± 4	979.07 ± 4	1440 ± 9	1398 ± 9
x2 = 0.6547	1007.45 ± 4	1002.6 ± 4	997.97 ± 4	993.39 ± 4	988.67 ± 4	1460 ± 9	1417 ± 9
x2 = 0.7398	1016.35 ± 4	1011.53 ± 4	1006.89 ± 4	1002.53 ± 4	998.04 ± 4	1480 ± 9	1437 ± 9
x2 = 0.8257	1024.9 ± 4	1020.21 ± 4	1015.71 ± 4	1011.52 ± 4	1007.24 ± 4	1499 ± 9	1456 ± 9
x2 = 0.9125	1033.23 ± 4	1028.71 ± 4	1024.47 ± 4	1020.44 ± 4	1016.45 ± 4	1517 ± 9	1476 ± 9
